Where two headings read alike, the source gives them in different places.
Test: logP determination by HPLC (EEC Directive 79/831 Annex V. A8)
Assay type: physicochemical
Experimental: logP value is determined in accordance with EEC Directive 79/831 Annex V. A8 by HPLC (gradient method, acetonitrile/0.1% aqueous phosphoric acid)

[1] = HPLC, gradient method, acetonitrile/0.1% aqueous phosphoric acid, read-out: logP

SMILES: CC(Nc1c(-c2ccc(F)cc2Cl)c(Cl)nc2c(C=O)cnn12)C(C)(C)C (stereo not drawn) [Example 542, 3-formyl-5-chloro-6-(2-chloro-4-fluorophenyl)-7-(3,3-dimethylbut-2-ylamino)pyrazolo[1,5-a]pyrimidine]
- chromatographic logP (HPLC (gradient method), per EEC Directive 79/831 Annex V. A8, two values, one per atropisomer, read-out: log P (atropisomers)): 4.47

SMILES: CCC1COC(c2cnn3c(NC(C)C(C)(C)C)c(-c4ccc(F)cc4Cl)c(Cl)nc23)O1 (stereo not drawn) [Example 23]
- chromatographic logP [1]: 5.7

SMILES: CC1CCN(c2c(-c3ccc(F)cc3Cl)c(Cl)nc3c(C=O)cnn23)CC1 [Example 541, 3-formyl-5-chloro-6-(2-chloro-4-fluorophenyl)-7-(4-methylpiperidino)pyrazolo[1,5-a]pyrimidine]
- chromatographic logP (HPLC, gradient of acetonitrile/0.1% aqueous phosphoric acid, pH=2.3, read-out: log P(pH=2.3)): 4.53

SMILES: COCc1cnn2c(N3CCC(C)CC3)c(-c3ccc(F)cc3Cl)c(Cl)nc12 [Example 2, 3-methoxymethyl-5-chloro-6-(2-chloro-4-fluorophenyl)-7-(4-methylpiperidno)pyrazolo[1,5-a]pyrimidine]
- chromatographic logP [1]: 5.09

SMILES: CC1CCN(c2c(-c3ccc(F)cc3Cl)c(Cl)nc3c(CO)cnn23)CC1 [Example 1, 3-hydroxymethyl-5-chloro-6-(2-chloro-4-fluorophenyl)-7-(4-methylpiperidino)pyrazolo[1,5-a]pyrimidine]
- chromatographic logP [1]: 3.89

SMILES: CC1CCN(c2c(-c3ccc(F)cc3Cl)c(Cl)nc3c(C#N)cnn23)CC1 [Example 543, 3-cyano-5-chloro-6-(2-chloro-4-fluorophenyl)-7-(4-methylpiperidino)pyrazolo[1,5-a]pyrimidine]
- chromatographic logP (pH=2.3, read-out: log P(pH=2.3)): 4.88
